The supplement of paper PMC10307832

Tests used:
Assay in all cases: relative viability (nuclei count vs DMSO), 5 days (fraction); higher = more cells survive
ALW-II-49-7 + Bortezomib = compound: Cc1ccc(C(=O)Nc2cccc(C(F)(F)F)c2)cc1Nc1cncc(C(N)=O)c1 [ALW-II-49-7] + CC(C)C[C@H](NC(=O)[C@H](Cc1ccccc1)NC(=O)c1cnccn1)B(O)O [Bortezomib] (partner 0.002 µM)
How it was run: (§1)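 Cells from lung cancer lines were seeded into 1536-well plates and, one day later, dosed by pin tool. Treatments were either a single drug or a fixed dose of an anchor drug with five library-drug doses (not always all listed) in √10 steps. After 5 days, nuclei were stained in a one-step fixation (final 0.05% Triton X-100, 1% formaldehyde, 1 ug/ml Hoechst) and counted on 4× images, and relative viability is the treated-to-vehicle nuclei ratio, as the median of duplicate plates.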

Dasatinib + Bortezomib = compound: Cc1nc(Nc2ncc(C(=O)Nc3c(C)cccc3Cl)s2)cc(N2CCN(CCO)CC2)n1 [Dasatinib] + CC(C)C[C@H](NC(=O)[C@H](Cc1ccccc1)NC(=O)c1cnccn1)B(O)O [Bortezomib] (partner 0.002 µM)
How it was run: as §1

ALW-II-49-7 + Tozasertib = compound: Cc1ccc(C(=O)Nc2cccc(C(F)(F)F)c2)cc1Nc1cncc(C(N)=O)c1 [ALW-II-49-7] + Cc1cc(Nc2cc(N3CCN(C)CC3)nc(Sc3ccc(NC(=O)C4CC4)cc3)n2)n[nH]1 [Tozasertib] (partner 0.1 µM)
How it was run: as §1

XMD13-2 + Trametinib = compound: C1CC1C(=O)NC2=NNC3=C2C=CC(=C3)C4=CC(=CC=C4)C(=O)NC5CC5 [XMD13-2] + CC(=O)Nc1cccc(-n2c(=O)n(C3CC3)c(=O)c3c(Nc4ccc(I)cc4F)n(C)c(=O)c(C)c32)c1 [Trametinib] (partner 0.02 µM)
How it was run: as §1

Cell Line	relative viability (ALW-II-49-7 + Bortezomib; first compound 0.08 µM)	relative viability (ALW-II-49-7 + Bortezomib; first compound 0.253 µM)	relative viability (ALW-II-49-7 + Bortezomib; first compound 0.8 µM)	relative viability (ALW-II-49-7 + Bortezomib; first compound 2.53 µM)	relative viability (ALW-II-49-7 + Bortezomib; first compound 8 µM)	relative viability (Dasatinib + Bortezomib; first compound 0.005 µM)	relative viability (Dasatinib + Bortezomib; first compound 0.01581 µM)	relative viability (Dasatinib + Bortezomib; first compound 0.05 µM)	relative viability (Dasatinib + Bortezomib; first compound 0.1581 µM)	relative viability (Dasatinib + Bortezomib; first compound 0.5 µM)	relative viability (ALW-II-49-7 + Tozasertib; first compound 0.08 µM)	relative viability (ALW-II-49-7 + Tozasertib; first compound 0.253 µM)	relative viability (ALW-II-49-7 + Tozasertib; first compound 0.8 µM)	relative viability (ALW-II-49-7 + Tozasertib; first compound 2.53 µM)	relative viability (ALW-II-49-7 + Tozasertib; first compound 8 µM)	relative viability (XMD13-2 + Trametinib; first compound 0.05 µM)	relative viability (XMD13-2 + Trametinib; first compound 0.1581 µM)	relative viability (XMD13-2 + Trametinib; first compound 0.5 µM)	relative viability (XMD13-2 + Trametinib; first compound 1.581 µM)	relative viability (XMD13-2 + Trametinib; first compound 5 µM)
COR-L 105	0.802	0.681	0.826	0.587	0.767	0.611	0.51	0.498	0.318	0.273	0.38	0.263	0.346	0.336	0.315	0.423	0.466	0.432	0.476	0.393
LU99A	1.29	1.17	1.05	1.07	1.27	1.11	0.973	1.03	0.812	0.573	0.273	0.29	0.252	0.269	0.249	0.581	0.532	0.546	0.54	0.352
H3255	0.974	0.841	0.933	0.679	0.625	0.795	0.749	0.623	0.504	0.299	0.724	0.613	0.675	0.625	0.42	0.749	0.66	0.556	–	0.475
NCI-H1734	1.07	1.14	0.846	0.823	0.738	0.754	0.508	0.79	0.425	0.561	0.263	0.278	0.255	0.24	0.232	0.783	0.653	0.753	0.662	0.627
NCI-H650	0.649	0.906	0.913	0.88	0.663	0.867	0.939	0.73	0.559	0.451	0.719	0.737	0.673	0.577	0.481	1.37	1.02	1.05	0.917	0.991
NCI-H1915	0.648	1	0.918	0.931	0.67	0.982	0.809	0.876	0.593	0.298	0.398	0.457	0.42	0.341	0.277	0.392	0.289	0.318	0.284	0.35
NCI-H2009	1	1.03	0.96	0.783	0.512	1.13	0.97	0.884	0.354	0.173	0.771	0.804	0.707	0.653	0.562	0.344	0.271	0.29	0.307	0.264
NCI-H1651	1.06	0.976	1.04	0.933	0.936	0.947	0.873	0.795	0.859	0.825	0.608	0.852	0.543	0.566	0.377	0.909	0.843	0.789	0.869	0.834
HOP-62	0.852	1.06	1.02	0.369	0.965	0.875	0.674	0.643	0.864	0.39	0.278	0.341	0.368	0.358	0.289	0.397	0.4	0.443	0.426	0.407
CAL-12T	0.923	–	–	0.978	0.721	0.992	1.06	0.875	0.354	0.207	0.289	0.406	0.389	0.274	0.308	0.465	0.399	0.332	0.317	0.307
LCLC-103H	1.03	0.859	1.1	0.9	0.962	0.987	1.06	1	0.918	0.613	0.451	0.453	0.486	0.451	0.389	0.66	0.677	0.742	0.738	0.76
NCI-H3122	1.09	1.06	1.11	1.08	1.11	0.988	0.94	1.02	1.05	0.815	0.437	0.202	0.371	–	0.373	0.251	0.198	0.205	0.235	0.214
PC-14	0.88	0.872	0.83	0.758	0.857	0.822	0.96	0.969	0.585	0.35	0.584	0.657	0.503	0.288	0.492	0.892	0.713	0.788	0.723	0.983
BEN	0.851	0.828	0.789	–	0.875	0.628	0.439	0.425	0.315	0.362	0.331	0.524	0.512	0.515	0.632	1.11	1	1.21	0.991	1.07
EPLC-272H	0.806	0.839	0.934	1.05	0.751	0.921	0.89	0.808	0.864	0.429	0.127	–	0.257	0.298	0.27	0.289	0.311	0.301	0.257	0.271
ChaGo-K-1	0.769	1.23	1.1	1.18	0.864	0.847	1.03	0.99	0.891	0.864	0.248	0.238	0.22	0.212	0.2	0.937	0.89	0.959	0.847	0.835
HCC-827	1.13	1.03	1.03	1.1	1.03	1.08	1.03	1.07	0.981	0.48	0.427	0.449	0.4	0.397	0.415	0.611	0.502	0.528	0.49	0.473
NCI-H1993	1.14	1.19	1.01	1.13	1.33	0.743	0.851	1.34	0.847	0.497	0.524	0.605	0.567	0.629	0.632	0.563	0.504	0.508	0.507	0.539
NCI-H647	0.858	1.13	0.799	0.725	0.801	0.547	0.593	0.447	0.257	0.189	0.37	0.409	0.204	0.181	0.177	0.621	0.4	0.587	0.431	0.305
NCI-H460	0.869	1.04	1.04	0.956	1.05	0.97	0.79	0.701	0.736	0.49	0.354	0.597	0.421	0.273	0.0328	0.288	0.13	0.209	0.195	0.167
EMC-BAC-2	1.04	0.979	1.1	1.06	0.844	1.06	0.876	0.734	0.634	0.367	0.267	0.273	0.276	0.203	0.199	0.986	0.893	0.824	–	0.805
NCI-H23	1.12	0.807	1.03	1.12	1.02	0.958	0.812	0.904	0.677	0.519	0.308	0.553	0.337	0.404	0.363	0.358	0.432	0.438	0.371	0.353
A-427	1.1	0.95	0.967	1.02	1.05	1	0.983	0.839	0.663	0.524	0.18	0.204	0.21	0.177	0.204	0.795	0.649	0.755	–	0.581
NCI-H322M	1.09	1.36	1.43	1.32	1.26	1.28	1.25	1.32	0.966	0.177	0.436	0.484	0.476	0.411	0.367	0.396	0.51	0.446	–	0.565
COR-L23	1.13	0.784	0.95	0.866	1.11	0.938	0.849	0.862	0.654	0.646	0.206	0.193	0.17	0.15	0.15	0.611	0.591	0.684	0.552	0.626
NCI-H2085	0.989	1	1.13	1.16	0.969	1.09	0.958	0.86	0.397	0.262	0.753	0.895	0.787	0.743	0.568	0.62	0.568	0.472	0.5	0.514
NCI-H2087	0.759	0.959	0.824	0.846	0.857	0.751	0.769	0.869	0.815	0.665	0.222	0.266	0.271	0.162	0.16	0.194	0.196	0.198	0.198	0.23
